The text below walks through data of article PMC9822402, “Investigation on Hydrazonobenzenesulfonamides as Human Carbonic Anhydrase I, II, IX and XII Inhibitors” (Molecules, 2022).

One test has as its target T1, hCA II (Homo sapiens, UniProt P00918).
T1 construct: gene CA2; recombinant, obtained in-house
The test is described as follows: stopped-flow CO2 hydrase assay. It counts as biochemical. The settings on record: read-out: KI (nM) ^1 / CAII.

A further test addresses T2, hCA I (Homo sapiens, UniProt P00915).
T2 construct: gene CA1; recombinant, obtained in-house
As to the kind of experiment: stopped-flow CO2 hydrase assay. The settings on record: read-out: KI (nM) ^1 / CAI. It counts as biochemical.

T2 sequence (P00915 2-261): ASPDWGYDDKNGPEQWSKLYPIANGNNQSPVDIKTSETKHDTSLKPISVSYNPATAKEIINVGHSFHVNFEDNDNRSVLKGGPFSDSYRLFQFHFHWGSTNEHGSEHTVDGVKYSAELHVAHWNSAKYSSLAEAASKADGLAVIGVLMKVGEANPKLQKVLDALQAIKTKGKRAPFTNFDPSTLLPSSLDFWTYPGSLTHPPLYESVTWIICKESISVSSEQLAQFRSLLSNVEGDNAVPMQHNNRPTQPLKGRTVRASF

`NS(=O)(=O)c1ccc(C(=O)N2CCC(C(=O)N/N=C/c3ccccc3)CC2)cc1` [compound 5, (E)-4-(4-(2-benzylidenehydrazinecarbonyl)piperidine-1-carbonyl)benzenesulfonamide]: the Ki came out at 4.41 nM at hCA II and 18.5 nM at hCA I. The corresponding values for `Cc1ccc(/C=N/NC(=O)C2CCN(C(=O)c3ccc(S(N)(=O)=O)cc3)CC2)cc1` [compound 6, (E)-4-(4-(2-(4-methylbenzylidene)hydrazinecarbonyl)piperidine-1-carbonyl)benzenesulfonamide] are 5.62 nM and 3240 nM. In the same order, the values of `COc1ccccc1/C=N/NC(=O)C1CCN(C(=O)c2ccc(S(N)(=O)=O)cc2)CC1` [compound 7, (E)-4-(4-(2-(2-methoxybenzylidene)hydrazinecarbonyl)piperidine-1-carbonyl)benzenesulfonamide] are 2.94 nM and 45.5 nM.

For the molecule `COc1cccc(/C=N/NC(=O)C2CCN(C(=O)c3ccc(S(N)(=O)=O)cc3)CC2)c1` [compound 8, (E)-4-(4-(2-(3-methoxybenzylidene)hydrazinecarbonyl)piperidine-1-carbonyl)benzenesulfonamide], the Ki on hCA II stood at 44.3 nM; at hCA I it was 382 nM. On to `COc1ccc(/C=N/NC(=O)C2CCN(C(=O)c3ccc(S(N)(=O)=O)cc3)CC2)cc1` [compound 9, (E)-4-(4-(2-(4-methoxybenzylidene)hydrazinecarbonyl)piperidine-1-carbonyl)benzenesulfonamide], for which the values for the Ki at hCA II and at hCA I were 4.48 nM and 389 nM, respectively. In the same order, the values of `COc1ccc(/C=N/NC(=O)C2CCN(C(=O)c3ccc(S(N)(=O)=O)cc3)CC2)c(OC)c1` [compound 10, (E)-4-(4-(2-(2,4-dimethoxybenzylidene)hydrazinecarbonyl)piperidine-1-carbonyl)benzenesulfonamide] are 160 nM and 1890 nM.

`COc1ccc(/C=N/NC(=O)C2CCN(C(=O)c3ccc(S(N)(=O)=O)cc3)CC2)cc1OC` [compound 11, (E)-4-(4-(2-(3,4-dimethoxybenzylidene)hydrazinecarbonyl)piperidine-1-carbonyl)benzenesulfonamide]: the Ki is 55.1 nM at hCA II and 344 nM at hCA I. The corresponding values for `COc1ccc(OC)c(/C=N/NC(=O)C2CCN(C(=O)c3ccc(S(N)(=O)=O)cc3)CC2)c1` [compound 12, (E)-4-(4-(2-(2,5-dimethoxybenzylidene)hydrazinecarbonyl)piperidine-1-carbonyl)benzenesulfonamide] are 1.75 nM and 24.3 nM. Consider `COc1cc(OC)c(OC)cc1/C=N/NC(=O)C1CCN(C(=O)c2ccc(S(N)(=O)=O)cc2)CC1` [compound 13, (E)-4-(4-(2-(2,4,5-trimethoxybenzylidene)hydrazinecarbonyl)piperidine-1-carbonyl)benzenesulfonamide], for which the Ki at hCA II turned out to be 3.78 nM. Take `COc1cc(/C=N/NC(=O)C2CCN(C(=O)c3ccc(S(N)(=O)=O)cc3)CC2)cc(OC)c1OC` [compound 14, (E)-4-(4-(2-(3,4,5-trimethoxybenzylidene)hydrazinecarbonyl)piperidine-1-carbonyl)benzenesulfonamide]: the Ki at hCA II was found to be 67.6 nM; on hCA I, 384 nM. In the same order, the values of `COc1ccc(/C=N/NC(=O)C2CCN(C(=O)c3ccc(S(N)(=O)=O)cc3)CC2)c(Br)c1OC` [compound 15, (E)-4-(4-(2-(2-bromo-3,4-dimethoxybenzylidene)hydrazinecarbonyl)piperidine-1-carbonyl)benzenesulfonamide] are 65.5 nM and 1540 nM. The corresponding values for `NS(=O)(=O)c1ccc(C(=O)N2CCC(C(=O)N/N=C/c3ccc4ccccc4c3)CC2)cc1` [compound 16, (E)-4-(4-(2-((naphthalen-2-yl)methylene)hydrazinecarbonyl)piperidine-1-carbonyl)benzenesulfonamide] are 209 nM and 4000 nM. The corresponding values for `COc1c(/C=N/NC(=O)C2CCN(C(=O)c3ccc(S(N)(=O)=O)cc3)CC2)ccc2ccccc12` [compound 17, (E)-4-(4-(2-((1-methoxynaphthalen-2-yl)methylene)hydrazinecarbonyl)piperidine-1-carbonyl)benzenesulfonamide] are 25.2 nM and 334 nM. In the case of `NS(=O)(=O)c1ccc(C(=O)N2CCC(C(=O)N/N=C/c3ccc(C(F)(F)F)cc3)CC2)cc1` [compound 18, (E)-4-(4-(2-(4-(trifluoromethyl)benzylidene)hydrazinecarbonyl)piperidine-1-carbonyl)benzenesulfonamide], the Ki at hCA II was 37.4 nM; on hCA I, 1750 nM. The corresponding values for `NS(=O)(=O)c1ccc(C(=O)N2CCC(C(=O)N/N=C/c3cccc(F)c3)CC2)cc1` [compound 19, (E)-4-(4-(2-(3-fluorobenzylidene)hydrazinecarbonyl)piperidine-1-carbonyl)benzenesulfonamide] are 92.4 nM and 392 nM. In the same order, the values of `NS(=O)(=O)c1ccc(C(=O)N2CCC(C(=O)N/N=C/c3ccc(F)cc3)CC2)cc1` [compound 20, (E)-4-(4-(2-(4-fluorobenzylidene)hydrazinecarbonyl)piperidine-1-carbonyl)benzenesulfonamide] are 17.1 nM and 340 nM. In the same order, the values of `NS(=O)(=O)c1ccc(C(=O)N2CCC(C(=O)N/N=C/c3cccc([N+](=O)[O-])c3)CC2)cc1` [compound 21, (E)-4-(4-(2-(3-nitrobenzylidene)hydrazinecarbonyl)piperidine-1-carbonyl)benzenesulfonamide] are 46.2 nM and 1820 nM. For `NS(=O)(=O)c1ccc(C(=O)N2CCC(C(=O)N/N=C/c3ccc([N+](=O)[O-])cc3)CC2)cc1` [compound 22, (E)-4-(4-(2-(4-nitrobenzylidene)hydrazinecarbonyl)piperidine-1-carbonyl)benzenesulfonamide], the values for the Ki on hCA II and on hCA I were 4.92 nM and 384 nM, respectively. Take `NS(=O)(=O)c1ccc(C(=O)N2CCC(C(=O)N/N=C/c3ccccc3Cl)CC2)cc1` [compound 23, (E)-4-(4-(2-(2-chlorobenzylidene)hydrazinecarbonyl)piperidine-1-carbonyl)benzenesulfonamide]: the Ki on hCA II was 6.51 nM; on hCA I, 482 nM. In the same order, the values of `NS(=O)(=O)c1ccc(C(=O)N2CCC(C(=O)N/N=C/c3cccc(Cl)c3)CC2)cc1` [compound 24, (E)-4-(4-(2-(3-chlorobenzylidene)hydrazinecarbonyl)piperidine-1-carbonyl)benzenesulfonamide] are 55.4 nM and 398 nM. The corresponding values for `NS(=O)(=O)c1ccc(C(=O)N2CCC(C(=O)N/N=C/c3ccc(Cl)cc3Cl)CC2)cc1` [compound 25, (E)-4-(4-(2-(2,4-dichlorobenzylidene)hydrazinecarbonyl)piperidine-1-carbonyl)benzenesulfonamide] are 6.65 nM and 336 nM. For `NS(=O)(=O)c1ccc(C(=O)N2CCC(C(=O)N/N=C/c3cc(Cl)ccc3Cl)CC2)cc1` [compound 26, (E)-4-(4-(2-(2,5-dichlorobenzylidene)hydrazinecarbonyl)piperidine-1-carbonyl)benzenesulfonamide], the Ki on hCA II was found to be 3.64 nM; on hCA I it was 800 nM. In the same order, the values of `NS(=O)(=O)c1ccc(C(=O)N2CCC(C(=O)N/N=C/c3c(Cl)cccc3Cl)CC2)cc1` [compound 27, (E)-4-(4-(2-(2,6-dichlorobenzylidene)hydrazinecarbonyl)piperidine-1-carbonyl)benzenesulfonamide] are 3.57 nM and 24.6 nM.
